# Assay results from ChEMBL document CHEMBL1201862, “PubChem BioAssay data set” (2004).
# The source made the active and inactive calls.
# What was measured:
# [1] = target: Benomyl/methotrexate resistance protein (Candida albicans, UniProt P28873); assay: Candida albicans Mdr1 pump inhibition curves – singleplex, Cherry Pick1 hits, dose response (AID 588608); format: functional
# [2] = target: T1, High affinity choline transporter 1 (Homo sapiens, UniProt Q9GZV3); assay: human choline transporter blockers, potency – cell-based, 5-point CRC, membrane potential dye, dose response (AID 504840); format: functional
# T1 sequence (Q9GZV3 whole entry): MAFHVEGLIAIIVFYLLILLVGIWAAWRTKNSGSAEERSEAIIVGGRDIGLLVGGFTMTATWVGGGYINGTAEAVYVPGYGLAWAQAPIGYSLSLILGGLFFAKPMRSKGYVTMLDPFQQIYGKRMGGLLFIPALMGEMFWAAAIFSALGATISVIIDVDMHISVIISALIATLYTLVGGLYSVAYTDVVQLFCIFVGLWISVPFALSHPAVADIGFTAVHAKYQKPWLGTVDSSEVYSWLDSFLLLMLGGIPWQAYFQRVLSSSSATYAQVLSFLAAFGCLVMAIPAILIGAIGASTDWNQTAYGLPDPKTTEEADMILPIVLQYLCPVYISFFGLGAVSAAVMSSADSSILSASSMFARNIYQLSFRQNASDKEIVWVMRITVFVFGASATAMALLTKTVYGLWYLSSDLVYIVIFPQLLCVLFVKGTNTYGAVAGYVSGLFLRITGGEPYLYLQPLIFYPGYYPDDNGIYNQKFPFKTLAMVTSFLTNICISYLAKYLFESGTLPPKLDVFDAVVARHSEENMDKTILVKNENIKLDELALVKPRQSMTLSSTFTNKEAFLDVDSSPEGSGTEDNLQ
# Protein Wnt-3a = Protein Wnt-3a (Mus musculus, UniProt P27467); assay: antagonism of Wnt3a pathway luciferase reporter – Wnt-LIGHT cells, luminescence, selectivity assay for Gli-SUFU antagonist project, dose response (AID 651570); format: functional; details: read-out: IC50_Mean;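 note: Wnt-LIGHT reporter cells stimulated with conditioned medium from Wnt3a-producing cells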
# [3] = target: T1, High affinity choline transporter 1; assay: human choline transporter blockers, potency – cell-based, 10-point CRC, membrane potential dye, dose response (AID 588401); format: functional;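 note: membrane potential dye fluorescence of choline-evoked depolarization via CHT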
# [4] = target: 5-hydroxytryptamine receptor 2A (Mus musculus, UniProt P35363); format: functional, cell-based;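 note: CHO-K1 cells with tagged receptor and beta-arrestin; agonist potency measured as compound-induced activation of the receptor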
# [5] = target: T2, Rac GTPase-activating protein 1 (Homo sapiens, UniProt Q9H0H5); assay: blockers of MgcRacGAP-driven Rac1 GTP hydrolysis – biochemical, ADP Hunter fluorescence, primary and confirmatory, confirmation (AID 624330); format: functional
# T2 sequence (Q9H0H5 whole entry): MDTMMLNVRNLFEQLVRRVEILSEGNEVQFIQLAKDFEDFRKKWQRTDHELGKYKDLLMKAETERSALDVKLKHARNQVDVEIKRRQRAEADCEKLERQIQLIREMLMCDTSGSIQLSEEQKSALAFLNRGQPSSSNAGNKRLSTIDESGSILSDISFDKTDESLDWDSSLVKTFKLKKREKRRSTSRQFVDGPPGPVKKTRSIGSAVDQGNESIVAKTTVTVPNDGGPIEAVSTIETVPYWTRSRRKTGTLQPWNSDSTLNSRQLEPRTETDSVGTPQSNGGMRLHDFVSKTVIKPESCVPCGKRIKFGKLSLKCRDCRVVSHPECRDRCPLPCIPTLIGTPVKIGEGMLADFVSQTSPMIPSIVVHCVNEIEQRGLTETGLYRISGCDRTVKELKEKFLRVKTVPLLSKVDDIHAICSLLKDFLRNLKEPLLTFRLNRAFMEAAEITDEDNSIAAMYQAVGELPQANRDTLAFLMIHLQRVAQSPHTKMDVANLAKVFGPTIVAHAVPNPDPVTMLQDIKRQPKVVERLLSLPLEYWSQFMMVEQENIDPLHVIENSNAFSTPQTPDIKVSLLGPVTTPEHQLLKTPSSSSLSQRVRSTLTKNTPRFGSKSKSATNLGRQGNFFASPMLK
# Mu-type opioid receptor = Mu-type opioid receptor (Homo sapiens, UniProt P35372); format: functional, cell-based;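 note: U2OS cells with beta-arrestin recruitment to OPRM1 by beta-gal complementation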
# [6] = target: T3, Sentrin-specific protease 1 (Homo sapiens, UniProt Q9P0U3); assay: SENP1 catalytic domain blockers, concentration series – biochemical, kinetic FRET, dose response (AID 651697); format: functional; details: read-out: IC50_Mean
# T3 sequence (Q9P0U3 whole entry): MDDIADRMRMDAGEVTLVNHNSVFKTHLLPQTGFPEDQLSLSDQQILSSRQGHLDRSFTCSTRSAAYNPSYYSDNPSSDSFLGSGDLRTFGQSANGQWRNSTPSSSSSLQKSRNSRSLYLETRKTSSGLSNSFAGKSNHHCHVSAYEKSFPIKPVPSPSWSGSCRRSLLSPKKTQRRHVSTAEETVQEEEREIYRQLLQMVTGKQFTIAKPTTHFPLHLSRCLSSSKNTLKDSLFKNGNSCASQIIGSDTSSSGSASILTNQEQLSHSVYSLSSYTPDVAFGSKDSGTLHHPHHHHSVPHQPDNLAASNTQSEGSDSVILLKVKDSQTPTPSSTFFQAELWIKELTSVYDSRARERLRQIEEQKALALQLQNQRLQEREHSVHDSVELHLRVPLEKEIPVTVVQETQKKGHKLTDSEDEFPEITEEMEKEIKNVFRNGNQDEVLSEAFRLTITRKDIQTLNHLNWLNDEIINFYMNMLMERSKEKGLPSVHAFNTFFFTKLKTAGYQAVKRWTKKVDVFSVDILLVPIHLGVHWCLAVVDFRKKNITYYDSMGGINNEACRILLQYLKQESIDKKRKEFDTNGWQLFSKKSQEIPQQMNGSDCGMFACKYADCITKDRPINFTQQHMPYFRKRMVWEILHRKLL
# [7] = target: T3, Sentrin-specific protease 1; assay: Dose response confirmation of small molecule inhibitors of the catalytic domain of the SUMO protease, SENP1 in a FRET assay.; format: functional; details: read-out: IC50_Mean
# [8] = target: T4, Sentrin-specific protease 8 (Homo sapiens, UniProt Q96LD8); format: functional;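 note: kinetic enzyme assay of SENP8 cleaving a Nedd8 protein substrate, dose-response confirmation of screening hits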
# T4 sequence (Q96LD8 whole entry): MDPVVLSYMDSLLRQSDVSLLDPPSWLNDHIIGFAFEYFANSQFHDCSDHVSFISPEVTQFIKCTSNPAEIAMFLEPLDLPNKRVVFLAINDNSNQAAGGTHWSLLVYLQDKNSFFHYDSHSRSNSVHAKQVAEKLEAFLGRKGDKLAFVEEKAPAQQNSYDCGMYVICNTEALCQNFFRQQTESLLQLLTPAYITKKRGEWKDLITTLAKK
# [9] = target: T5, Sentrin-specific protease 6 (Homo sapiens, UniProt Q9GZR1); assay: SAR Analysis of small molecule inhibitors of Sentrin-specific protease 6 (SENP6) using a Luminescent assay. [Related pubchem assays (depositor defined):AID2582, AID2599]; format: functional
# T5 sequence (Q9GZR1 whole entry): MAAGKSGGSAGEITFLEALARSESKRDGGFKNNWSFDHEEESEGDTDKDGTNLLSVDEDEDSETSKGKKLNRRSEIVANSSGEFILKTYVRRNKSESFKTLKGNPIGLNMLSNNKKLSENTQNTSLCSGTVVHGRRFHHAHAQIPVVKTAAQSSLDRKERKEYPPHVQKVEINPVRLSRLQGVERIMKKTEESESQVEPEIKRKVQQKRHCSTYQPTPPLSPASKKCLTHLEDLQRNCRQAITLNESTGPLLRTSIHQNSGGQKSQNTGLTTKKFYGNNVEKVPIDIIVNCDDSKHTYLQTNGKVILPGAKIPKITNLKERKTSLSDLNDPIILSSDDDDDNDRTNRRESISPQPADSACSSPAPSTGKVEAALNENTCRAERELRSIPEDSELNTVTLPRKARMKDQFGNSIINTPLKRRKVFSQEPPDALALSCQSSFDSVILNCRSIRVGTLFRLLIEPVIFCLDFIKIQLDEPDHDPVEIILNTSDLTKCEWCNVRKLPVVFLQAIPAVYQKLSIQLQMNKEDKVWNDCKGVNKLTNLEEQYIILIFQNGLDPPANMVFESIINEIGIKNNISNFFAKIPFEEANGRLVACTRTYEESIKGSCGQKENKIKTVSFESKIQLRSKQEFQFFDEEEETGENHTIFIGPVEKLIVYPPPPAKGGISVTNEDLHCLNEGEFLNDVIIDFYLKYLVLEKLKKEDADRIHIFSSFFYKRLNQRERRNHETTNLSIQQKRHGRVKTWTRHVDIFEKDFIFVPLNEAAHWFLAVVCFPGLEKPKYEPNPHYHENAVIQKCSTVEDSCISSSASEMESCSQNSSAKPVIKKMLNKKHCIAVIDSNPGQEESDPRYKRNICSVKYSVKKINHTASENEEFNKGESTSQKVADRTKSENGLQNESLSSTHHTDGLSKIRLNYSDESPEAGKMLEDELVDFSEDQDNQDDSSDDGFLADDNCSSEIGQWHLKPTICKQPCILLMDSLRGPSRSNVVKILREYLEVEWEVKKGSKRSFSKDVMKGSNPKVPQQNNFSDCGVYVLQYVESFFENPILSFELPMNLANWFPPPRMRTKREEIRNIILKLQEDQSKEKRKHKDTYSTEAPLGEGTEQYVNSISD
# [10] = target: T4, Sentrin-specific protease 8; assay: inhibition of human SENP8 cleavage activity – biochemical, luminescence, SAR follow-up (AID 504501); format: functional
# [11] = target: T6, Sentrin-specific protease 7 (Homo sapiens, UniProt Q9BQF6); assay: inhibition of human SENP7 cleavage activity – biochemical, luminescence, SAR follow-up (AID 504497); format: functional
# T6 sequence (Q9BQF6 whole entry): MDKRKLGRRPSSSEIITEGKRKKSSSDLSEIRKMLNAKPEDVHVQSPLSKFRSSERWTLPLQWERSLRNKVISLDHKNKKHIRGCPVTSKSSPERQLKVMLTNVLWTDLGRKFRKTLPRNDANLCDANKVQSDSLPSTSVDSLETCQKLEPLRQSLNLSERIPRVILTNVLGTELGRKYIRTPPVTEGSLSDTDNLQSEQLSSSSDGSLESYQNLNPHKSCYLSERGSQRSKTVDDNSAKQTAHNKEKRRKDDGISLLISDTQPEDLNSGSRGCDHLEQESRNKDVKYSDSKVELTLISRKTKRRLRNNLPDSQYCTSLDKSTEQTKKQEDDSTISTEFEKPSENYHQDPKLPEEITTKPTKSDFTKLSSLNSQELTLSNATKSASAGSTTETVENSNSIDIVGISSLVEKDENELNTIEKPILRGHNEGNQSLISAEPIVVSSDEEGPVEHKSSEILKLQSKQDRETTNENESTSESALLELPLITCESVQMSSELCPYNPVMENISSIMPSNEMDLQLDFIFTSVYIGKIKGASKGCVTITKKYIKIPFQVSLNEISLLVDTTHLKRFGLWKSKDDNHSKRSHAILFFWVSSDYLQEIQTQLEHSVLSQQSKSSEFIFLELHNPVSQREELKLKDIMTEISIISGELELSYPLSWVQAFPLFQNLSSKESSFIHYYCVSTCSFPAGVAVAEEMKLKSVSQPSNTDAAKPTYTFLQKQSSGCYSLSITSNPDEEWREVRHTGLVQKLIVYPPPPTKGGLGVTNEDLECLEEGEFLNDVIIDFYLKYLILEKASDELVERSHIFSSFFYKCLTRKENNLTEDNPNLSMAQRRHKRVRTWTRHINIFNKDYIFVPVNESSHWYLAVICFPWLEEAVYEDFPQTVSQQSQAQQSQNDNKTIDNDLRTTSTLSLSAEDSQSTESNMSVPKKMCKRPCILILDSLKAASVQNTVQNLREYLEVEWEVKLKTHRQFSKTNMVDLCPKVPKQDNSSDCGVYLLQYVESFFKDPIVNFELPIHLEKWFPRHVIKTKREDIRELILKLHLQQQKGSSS
# Caspase-3 = target: T7, Caspase-3 (Homo sapiens, UniProt P42574); assay: SAR Analysis of small molecule inhibitors of Sentrin-specific proteases (SENPs) using a Caspase-3 Selectivity assay. [Related pubchem assays (depositor defined):AID2540, AID2599, AID434973, AID489001]; format: functional
# T7 sequence (P42574 whole entry): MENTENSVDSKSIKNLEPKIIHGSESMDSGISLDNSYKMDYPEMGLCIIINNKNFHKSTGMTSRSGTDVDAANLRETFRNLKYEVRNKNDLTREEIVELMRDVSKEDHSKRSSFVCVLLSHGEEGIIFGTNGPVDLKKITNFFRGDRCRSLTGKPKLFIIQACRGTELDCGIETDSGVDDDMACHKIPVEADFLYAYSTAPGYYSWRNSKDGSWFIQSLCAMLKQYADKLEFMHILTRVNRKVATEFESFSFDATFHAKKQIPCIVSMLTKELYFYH
# [12] = target: Mitochondrial peptide methionine sulfoxide reductase (Bos taurus, UniProt P54149); format: functional;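 note: absorbance read-out, biochemical high-throughput dose-response screen for MsrA inhibitors, confirmatory; recombinant bovine MsrA coupled to E. coli TrxB with NADPH and selenocystamine; potency is for inhibitors of MsrA activity on DMSO substrate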
# Chain of Mitochondrial peptide methionine sulfoxide reductase (P54149 whole entry): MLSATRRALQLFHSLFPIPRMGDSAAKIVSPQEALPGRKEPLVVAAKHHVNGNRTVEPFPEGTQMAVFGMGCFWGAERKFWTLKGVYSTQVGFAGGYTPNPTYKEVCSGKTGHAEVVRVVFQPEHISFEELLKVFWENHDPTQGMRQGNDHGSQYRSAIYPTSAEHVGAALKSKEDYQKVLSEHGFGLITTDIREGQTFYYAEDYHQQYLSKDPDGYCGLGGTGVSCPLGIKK
# Chain of Benomyl/methotrexate resistance protein (P28873 whole entry): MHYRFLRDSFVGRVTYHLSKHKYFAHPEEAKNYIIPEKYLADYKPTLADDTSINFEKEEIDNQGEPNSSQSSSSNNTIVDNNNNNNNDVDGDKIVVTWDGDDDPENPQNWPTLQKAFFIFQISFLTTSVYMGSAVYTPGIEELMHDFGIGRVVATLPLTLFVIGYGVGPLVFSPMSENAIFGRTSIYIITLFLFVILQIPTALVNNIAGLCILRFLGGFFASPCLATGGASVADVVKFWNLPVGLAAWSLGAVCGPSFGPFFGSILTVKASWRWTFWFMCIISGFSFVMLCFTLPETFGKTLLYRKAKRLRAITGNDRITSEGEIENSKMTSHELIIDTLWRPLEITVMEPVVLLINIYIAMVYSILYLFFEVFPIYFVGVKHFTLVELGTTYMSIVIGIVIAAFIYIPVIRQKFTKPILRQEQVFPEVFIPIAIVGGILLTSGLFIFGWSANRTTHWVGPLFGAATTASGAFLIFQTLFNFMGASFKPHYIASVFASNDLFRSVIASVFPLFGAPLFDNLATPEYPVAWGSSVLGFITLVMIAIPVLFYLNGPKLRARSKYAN
# Chain of Protein Wnt-3a (P27467 whole entry): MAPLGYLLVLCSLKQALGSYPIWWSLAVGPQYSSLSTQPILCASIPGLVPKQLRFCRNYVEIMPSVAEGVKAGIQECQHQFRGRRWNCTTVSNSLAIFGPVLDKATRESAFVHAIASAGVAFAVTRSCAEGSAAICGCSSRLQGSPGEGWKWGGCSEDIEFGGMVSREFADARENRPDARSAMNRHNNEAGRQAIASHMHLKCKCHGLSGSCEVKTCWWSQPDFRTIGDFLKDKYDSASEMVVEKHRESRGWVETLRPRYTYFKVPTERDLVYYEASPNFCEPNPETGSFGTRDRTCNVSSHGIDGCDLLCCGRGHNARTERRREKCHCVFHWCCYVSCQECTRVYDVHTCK
# Chain of Mu-type opioid receptor (P35372 whole entry, the tested form may be a part): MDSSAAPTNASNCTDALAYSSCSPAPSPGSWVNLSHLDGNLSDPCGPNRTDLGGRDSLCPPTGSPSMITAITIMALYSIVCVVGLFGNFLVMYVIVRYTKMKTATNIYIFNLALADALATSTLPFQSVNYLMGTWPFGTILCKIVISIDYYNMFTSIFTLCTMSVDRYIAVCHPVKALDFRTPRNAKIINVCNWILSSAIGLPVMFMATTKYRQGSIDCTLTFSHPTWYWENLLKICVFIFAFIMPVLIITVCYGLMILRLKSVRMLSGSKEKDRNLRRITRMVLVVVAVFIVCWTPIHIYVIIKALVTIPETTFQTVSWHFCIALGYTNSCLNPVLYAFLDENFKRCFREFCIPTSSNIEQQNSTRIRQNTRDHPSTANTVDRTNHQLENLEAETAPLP
# Chain of 5-hydroxytryptamine receptor 2A (P35363 whole entry): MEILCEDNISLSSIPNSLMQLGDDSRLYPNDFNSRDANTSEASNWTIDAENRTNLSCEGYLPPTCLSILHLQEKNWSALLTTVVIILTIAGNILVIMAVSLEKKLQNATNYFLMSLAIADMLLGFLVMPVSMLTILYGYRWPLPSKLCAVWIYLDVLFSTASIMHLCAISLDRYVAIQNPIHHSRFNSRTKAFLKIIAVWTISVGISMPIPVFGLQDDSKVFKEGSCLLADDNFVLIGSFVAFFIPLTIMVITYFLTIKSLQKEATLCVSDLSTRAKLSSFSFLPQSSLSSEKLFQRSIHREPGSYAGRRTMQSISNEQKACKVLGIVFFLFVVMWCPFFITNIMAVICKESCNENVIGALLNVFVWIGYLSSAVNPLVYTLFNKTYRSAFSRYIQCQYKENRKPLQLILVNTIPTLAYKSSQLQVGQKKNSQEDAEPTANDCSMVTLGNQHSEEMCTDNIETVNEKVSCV
structure (smiles),measurement,setting,value
O=C(COC(=O)c1c2ccccc2cc2ccccc12)Nc1ncc(C(F)(F)F)cc1Cl,EC50,[1],23 µM (active)
NC(=O)CC(NC(=O)c1ccccc1)c1ccc(N2CCCCCC2)c([N+](=O)[O-])c1 (configuration not stated),IC50,[2],7.51 µM (active)
same,IC50,Protein Wnt-3a,19.9 µM (active)
same,IC50,[3],6.21 µM (active)
COc1ccc(S(=O)(=O)N2CCC(N3CCN(Cc4ccccc4)CC3)CC2)cc1,EC50,[4],76.1 µM (inactive)
same,IC50,[5],98.7 µM (active)
same,EC50,Mu-type opioid receptor,92.4 µM (inactive)
CC(=O)c1ccccc1Oc1nc(CN2CCOCC2)nc2scc(-c3cccs3)c12,IC50,[6],26.6 µM (inactive)
same,IC50,[7],69.6 µM (inactive)
CNc1cc(Cl)nc(SC)n1,IC50,[2],3.92 µM (active)
same,IC50,[3],2.67 µM (active)
O=[N+]([O-])c1c[cH-]c(N2CCN(Cc3ccccc3)CC2)c2[c+]1[n-]o[n+]2=O,IC50,[8],17.3 µM (active)
CCCc1ccc(OCc2ccc(C(=O)Nc3ccccc3F)cc2)cc1,IC50,[9],43.7 µM (active)
same,IC50,[10],70.3 µM (active)
same,IC50,[11],85.3 µM (active)
same,IC50,Caspase-3,> 99 µM (inactive)
FC(F)(F)c1ccc(N/N=C/c2cn(Cc3ccccc3)c3ccccc23)cc1,IC50,[9],> 99 µM (inactive)
same,IC50,[10],> 99 µM (inactive)
same,IC50,[11],> 99 µM (inactive)
same,IC50,Caspase-3,> 99 µM (inactive)
C/C(=N\Nc1ccc([N+](=O)[O-])cc1[N+](=O)[O-])C(C)C(C)C (configuration not stated),IC50,[12],155 µM (inactive)
CC(Nc1c([N+](=O)[O-])c(=O)oc2ccccc12)c1ccccc1 (configuration not stated),IC50,[12],125 µM (inactive)
